“Also recorded” adds a separate entry of the source.
Tests used:
[1] = biological target: T1, AR binding to PSA and FKBP5 enhancer (Homo sapiens, UniProt P10275, T878A); test: Chromatin immunoprecipitation (ChIP) in LNCaP cells; format: cell-based; conditions: R1881, 24 h
T1 construct: endogenous in cells; host or cells: LNCaP (LN-ARR2PB-eGFP reporter line for A1; parental LNCaP for ChIP)

AR Q592D mutant = biological target: T2, AR Q592D mutant (Homo sapiens, UniProt P10275, Q592D); test: ARR3tk-luciferase reporter assay in PC3 cells, AR Q592D; format: cell-based
T2 construct: Full-length human AR (hARWT) or splice variant (AR-V7) was encoded on a pcDNA3.1 expression plasmid; expressed in transfected cells; host or cells: PC3
T2 sequence (P10275 whole entry Q592D, canonical isoform): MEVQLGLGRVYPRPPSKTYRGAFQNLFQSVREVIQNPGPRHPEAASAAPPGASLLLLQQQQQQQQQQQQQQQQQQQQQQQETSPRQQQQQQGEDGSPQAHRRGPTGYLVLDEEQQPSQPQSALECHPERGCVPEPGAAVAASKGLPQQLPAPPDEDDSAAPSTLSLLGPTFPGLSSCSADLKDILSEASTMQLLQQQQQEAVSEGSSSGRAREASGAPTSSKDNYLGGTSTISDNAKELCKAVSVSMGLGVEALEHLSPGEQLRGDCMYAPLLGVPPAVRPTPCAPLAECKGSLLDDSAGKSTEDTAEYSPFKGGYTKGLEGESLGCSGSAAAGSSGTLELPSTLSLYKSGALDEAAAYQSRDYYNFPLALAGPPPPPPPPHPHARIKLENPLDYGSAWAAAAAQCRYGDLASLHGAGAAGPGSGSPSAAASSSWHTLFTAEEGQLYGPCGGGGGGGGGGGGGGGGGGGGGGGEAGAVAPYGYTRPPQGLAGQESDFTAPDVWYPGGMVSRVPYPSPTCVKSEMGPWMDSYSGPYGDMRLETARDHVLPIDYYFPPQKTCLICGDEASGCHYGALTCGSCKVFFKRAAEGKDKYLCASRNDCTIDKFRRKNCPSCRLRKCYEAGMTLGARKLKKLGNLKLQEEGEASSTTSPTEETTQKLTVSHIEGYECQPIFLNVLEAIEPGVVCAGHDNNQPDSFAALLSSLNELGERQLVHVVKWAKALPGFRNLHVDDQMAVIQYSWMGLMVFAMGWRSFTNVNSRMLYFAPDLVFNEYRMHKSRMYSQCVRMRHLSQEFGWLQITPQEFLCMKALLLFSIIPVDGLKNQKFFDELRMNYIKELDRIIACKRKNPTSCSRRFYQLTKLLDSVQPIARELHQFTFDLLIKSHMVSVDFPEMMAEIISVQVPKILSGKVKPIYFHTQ
Procedure: 8. Mutation Studies: The residues in the predicted binding site were mutated using the Quickchange™ Site-Directed Mutagenesis Kit as per the instructions.
9. Transient Transfection: The PC3/MCF7 cells were seeded into a 96-well plate (2,000 cells/well). After 24 hrs, the wild-type AR (50 ng/well)/AR mutants and AR3TK-luciferase plasmids (1:3) were co-transfected into PC3 cells or ERE-luciferase (50 ng/well) was transfected into MCF7 cells using transfection reagent TT20. 24 hrs after the transfection, the cells were treated with the compounds at various concentrations. And 24 hrs later, the cells were lysed and the reading was taken using a luminometer.

LNCaP xenograft = test: Castration-resistant LNCaP xenografts in mice; conditions: 100 mg/kg i.p. twice daily, 4 weeks
AR target genes = test: Microarray genetic profile in LNCaP cells
Stability in media = format: physicochemical
FKBP5 = test: Western blot FKBP5 protein in R1-D567 cells; format: cell-based, human
Procedure: Cell lysates (40 μl) from luciferase assays (96-well plate) were separated on a 10% SDS-polyacrylamide mini gel. Protein was transferred to methanol-charged PVDF membranes and probed with anti-AR441 (mouse, Sigma™) monoclonal primary antibody. Blots were also probed with polyclonal anti-actin (rabbit, Sigma™) to show equal loading and polyclonal anti-PARP/anti-cleaved PARP (rabbit, Sigma™) to test for induction of apoptosis. Lysates from CWR-R1 cells were additionally probed with polyclonal anti-FKBP5 (rabbit, Sigma™) following 2 days of incubation with compounds.

[2] = system: MDV3100-resistant LNCaP cells (MR49F); test: Cell viability (MTS) assay, MDV3100 (Enzalutamide)-resistant cells; format: cell-based, human; conditions: 0.1 nM R1881
Procedure: 1. Cell Culture: LNCaP and PC3 human prostate cancer cells were obtained from American Type Culture Collection (ATCC, Manassas, Va.) and grown in RPMI 1640 medium supplemented with 5% fetal bovine serum (FBS) (Invitrogen). […]. All cells were maintained at 37° C. in 5% CO2.
7. Cell viability assay: The PC3, LNCaP, and MDV3100-resistant cells were plated at 3,000 cells per well in RPMI 1640 containing 5% charcoal stripped serum (CSS) in a 96-well plate, treated with 0.1 nM R1881 and compounds (0-25 μM) for 96 hrs.

AR AF1 = test: AF1 assay (CREB and Gal4 plasmid in PC3 cells); format: cell-based
Description: As there are other known binding sites in AR including the hormone binding site (HBS), activation function-2 (AF2) site, binding function 3 (BF3) and N-terminal activation function-1 (AF1) site, we utilized other assays to rule out possible binding to those sites. […] Then we used an AF1 assay to measure whether the potency of this compound comes from the inhibition of AF1 transactivation.

AR AF2 site = AR AF2 site (Homo sapiens, UniProt P10275); test: SRC2-3 peptide displacement assay (fluorescence polarization); format: binding
AR AF2 site, sequence (P10275 664-920 limits assumed): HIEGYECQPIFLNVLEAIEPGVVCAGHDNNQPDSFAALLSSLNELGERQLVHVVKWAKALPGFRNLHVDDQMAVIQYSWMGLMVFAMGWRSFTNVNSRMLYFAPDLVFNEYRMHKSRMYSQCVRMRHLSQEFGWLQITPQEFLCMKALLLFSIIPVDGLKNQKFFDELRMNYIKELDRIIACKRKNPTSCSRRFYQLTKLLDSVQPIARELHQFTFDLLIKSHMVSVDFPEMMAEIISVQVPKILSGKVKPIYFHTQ
Procedure: 6. SRC2-3 peptide displacement assay: The AR AF2 specific peptide displacement was assayed as previously described.

[3] = biological target: T3, AR hormone binding site (recombinant wild type LBD) (Rattus norvegicus, UniProt P15207); test: Androgen displacement assay (Polar Screen Androgen Receptor Competitor Green Assay Kit)
T3 construct: displace DHT from the ABS site of recombinant wild type LBD
T3 sequence (P15207 651-882 limits assumed): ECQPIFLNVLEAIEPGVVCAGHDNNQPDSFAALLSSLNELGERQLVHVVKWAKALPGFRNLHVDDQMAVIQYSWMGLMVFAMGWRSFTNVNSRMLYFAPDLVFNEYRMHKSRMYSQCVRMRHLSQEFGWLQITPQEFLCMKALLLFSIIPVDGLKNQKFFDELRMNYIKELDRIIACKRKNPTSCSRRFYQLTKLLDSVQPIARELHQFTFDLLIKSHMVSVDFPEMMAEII
Procedure: 5. Androgen displacement assay: The androgen displacement was assessed with the Polar Screen Androgen Receptor Competitor Green Assay Kit as per the instructions of the manufacturer (Lack, Axerio-Cilies et al. 2011).
The ability of the above chemicals to displace DHT from the ABS site of recombinant wild type LBD was measured using a fluorescent polarization assay (PolarScreen™, Life Technologies) at various concentrations.

[4] = biological target: AR ligand binding domain (LBD) (Homo sapiens, UniProt P10275); test: Biolayer interferometry (BLI) assay, small molecule binding to AR
Procedure: 4. Biolayer interferometry (BLI) assay: The direct reversible interaction between small molecules and the AR was measured as previously described (Lack, Axerio-Cilies et al. 2011).

T1 sequence (P10275 whole entry T878A): as the sequence (P10275 whole entry Q592D, canonical isoform) above, with D592Q, T878A counted along it

Structure (SMILES)	AR pulldown of the PSA and FKBP5 enhancer [1]	concentration at which Q592D AR is inhibited (AR Q592D mutant; PC3 cells)	toxic effect on animals (LNCaP xenograft)	LNCaP xenograft tumor volume (LNCaP xenograft; castrated mice, 100 mg/kg)	serum PSA (LNCaP xenograft; castrated mice, 100 mg/kg)	change of expression of genotoxin-responsive genes (AR target genes; 31 genes)	FKBP5 gene expression fold change vs R1881 treatment only (AR target genes; 14449 400 nM + 1 nM R1881, 24 h, p 0.08)	ATF3 gene expression fold change (AR target genes; 14449 400 nM + R1881)	CASP1 gene expression fold change (AR target genes; 14449 400 nM + R1881)	XPC gene expression fold change (AR target genes; 14449 400 nM + R1881)	stability in media (Stability in media)	FKBP5 protein expression, R1-D567 cells (FKBP5)	inhibition of cell growth, MDV3100/Enzalutamide-resistant cells [2]	inhibition of CREB and Gal4 (AF1) (AR AF1)	inhibition of Q592D AR luciferase expression (AR Q592D mutant)	displacement of peptide in the AF2 binding site (AR AF2 site)	androgen displacement from AR HBS [3]	binding in the C-terminal LBD (BLI) [4]
Brc1ncn(-c2csc(N3CCOCC3)n2)c1Br [Compound 14449]	reduced AR pulldown	≥ 25 µM	no observable toxic effect	reduces tumor volume; also recorded: inhibited to levels comparable with enzalutamide treatment	abolishes PSA production; also recorded: inhibited to levels comparable with enzalutamide treatment	None of the genotoxin-responsive genes showed any significant change	0.81	0.99	1.00	1.03	fully stable in media	reduced	–	–	–	–	–	–
c1ccc(-c2csc(N3CCOCC3)n2)cc1 [Compound 14228, 4-(4-phenylthiazol-2-yl)morpholine]	–	–	–	–	–	–	–	–	–	–	–	reduced	strongly inhibits	no inhibition	not affected	Neither does it displace the peptide	does not displace androgen	no binding
